Experimental data from publication PMC8195388, “Heterologous Expression of Cyclodextrin Glycosyltransferase my20 in Escherichia coli and Its Application in 2-O-α-D-Glucopyranosyl-L-Ascorbic Acid Production” (Frontiers in Microbiology, 2021).

Test system: T1, recombinant CGTase MY20 (my20)
T1 construct: codon-optimized my20 gene in pET-24a(+), E. coli BL21(DE3), intracellular, Ni-NTA purified
Assay: AA-2G synthesis, HPLC […] nm, ping-pong fit
Assay type: biochemical, metagenome: marine microorganisms, Mariana Trench
Conditions: pH 5, 40°C

SMILES | KmA (glucosyl acceptor, co-substrate beta-cyclodextrin 0.5-25 g/L) | KmB (glucosyl donor, co-substrate L-ascorbic acid 1-50 g/L)
O=C1O[C@H]([C@@H](O)CO)C(O)=C1O [L-ascorbic acid] | 9.2 ± 0.06 g/L | 
OC[C@H]1O[C@@H]2O[C@H]3[C@H](O)[C@@H](O)[C@@H](O[C@H]4[C@H](O)[C@@H](O)[C@@H](O[C@H]5[C@H](O)[C@@H](O)[C@@H](O[C@H]6[C@H](O)[C@@H](O)[C@@H](O[C@H]7[C@H](O)[C@@H](O)[C@@H](O[C@H]8[C@H](O)[C@@H](O)[C@@H](O[C@H]1[C@H](O)[C@H]2O)O[C@@H]8CO)O[C@@H]7CO)O[C@@H]6CO)O[C@@H]5CO)O[C@@H]4CO)O[C@@H]3CO [β-CD] |  | 6.9 ± 0.04 g/L
